Counter-ions that a name gives are not always drawn.

T1 sequence (P25116 22-425): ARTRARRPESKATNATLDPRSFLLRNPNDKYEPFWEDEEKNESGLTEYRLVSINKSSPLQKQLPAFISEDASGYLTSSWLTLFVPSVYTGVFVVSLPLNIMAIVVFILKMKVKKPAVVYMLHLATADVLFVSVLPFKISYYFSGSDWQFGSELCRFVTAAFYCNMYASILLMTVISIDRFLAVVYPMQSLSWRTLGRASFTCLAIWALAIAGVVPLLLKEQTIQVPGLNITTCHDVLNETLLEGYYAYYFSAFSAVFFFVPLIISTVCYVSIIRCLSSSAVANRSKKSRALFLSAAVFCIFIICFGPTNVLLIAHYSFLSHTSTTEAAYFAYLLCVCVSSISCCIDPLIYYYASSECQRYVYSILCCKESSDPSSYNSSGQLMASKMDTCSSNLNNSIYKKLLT

One assay concerns the target T1, PAR1 (Homo sapiens (Human), UniProt P25116). Put plainly: Inhibition of PAR1-mediated platelet aggregation induced by TRAP. The conditions noted are these: TRAP-induced aggregation of washed platelets from healthy volunteer donors, 96-well format. Format: cell-based. The method, then:
PAR1 Determination Method: Inhibition of PAR1-Mediated Platelet Aggregation The pharmacological testing of the substances took place in platelet aggregation induced by TRAP (thrombin receptor-activating peptide) in 96-well format. For this purpose, blood was taken from healthy volunteer donors in 20 ml syringes containing 2 ml of 3.13% sodium citrate solution. After centrifugation at 150×g for 20 minutes, the platelet-rich plasma (PRP) was separated off and mixed with 1 μl of PGE1 solution (500 μg/ml in ethanol)/ml of PRP. Incubation at RT for 5 minutes was followed by centrifugation at 120×g for 15 minutes to remove the leukocytes. The leukocyte-free PRP was transferred in 5 ml portions into 15 ml PP tubes and centrifuged at 360×g for 15 minutes in order to pellet the platelets. The plasma was then decanted off and the platelet sediment from 5 ml of PRP was resuspended in 1 ml of Tyrode's (120 mM NaCl, 2.6 mM KCl, 12 mM NaHCO3, 0.39 mM NaH2PO4×H2O, 10 mM HEPES, 0.35% BSA, 5.5 mM glucose, pH 7.4) and adjusted with Tyrode's to a platelet count of 3×10^5/microliter (4). 13 ml of this cell suspension were then mixed with 866 μL of 10 mM CaCl2 solution, and 120 μL thereof were pipetted into each well of a 96-well plate containing 15 μL of the substance to be tested. After incubation at RT in the dark for 30 minutes, 15 μL of a TRAP solution (70-100 μM) were added as agonist, and kinetics were recorded at 650 nm in a SpectraMax 340 at 37° C. for 20 minutes while shaking. The areas under the curves of negative control (Tyrode's/DMSO) and positive control (15 μl of agonist/DMSO) were calculated and the difference was fixed as the 100% value. The substances to be tested were pipetted as serial dilutions in duplicate determination, the AUC was likewise determined for each substance concentration, and the % inhibition of the AUC compared with the control was calculated. On the basis of the % inhibition, the IC50 was calculated by nonlinear regression analysis according to the 4-parameter equation.
In general, IC50 refers to the midpoint of a concentration-inhibition curve. In turn, `CCOc1ccc2n(n1)c(N)n[n+]2CC(=O)c1cc(NC(C)=O)cc(S(F)(F)(F)(F)F)c1` [Example 1, 1-{2-[3-Acetylamino-5-(pentafluorosulfanyl)phenyl]-2-oxoethyl}-3-amino-6-ethoxy-[1,2,4]triazolo[4,3-b]pyridazin-1-ium trifluoroacetate] gave an IC50 below 14 nM.
On to `CC(C)(C)c1cc(C(=O)C[n+]2nc(N)n3ccccc32)cc(C(C)(C)C)c1O` [Example 3, 3-Amino-1-[2-(3,5-di-tert-butyl-4-hydroxyphenyl)-2-oxoethyl]-[1,2,4]triazolo[4,3-a]pyridin-1-ium trifluoroacetate], for which the midpoint of inhibition, the IC50, lay at 1080 nM.
Consider `COc1c(N2CCOCC2)cc(C(=O)C[n+]2nc(N)n3cc(C(F)(F)F)ccc32)cc1C(C)(C)C` [Example 4, 3-Amino-1-[2-(3-tert-butyl-4-methoxy-5-morpholin-4-ylphenyl)-2-oxoethyl]-6-trifluoromethyl-[1,2,4]triazolo[4,3-a]pyridin-1-ium trifluoroacetate], for which the IC50 is 126 nM.
Turning to `CCOC(=O)c1cn2c(N)n[n+](CC(=O)c3cc(N4CCOCC4)c(OC)c(C(C)(C)C)c3)c2cc1OCC` [Example 8, 3-Amino-1-[2-(3-tert-butyl-4-methoxy-5-morpholin-4-yl-phenyl)-2-oxoethyl]-7-ethoxy-6-ethoxycarbonyl-[1,2,4]triazolo[4,3-a]pyridin-1-ium trifluoroacetate], the IC50 is 4400 nM.
`CCC(CC)Oc1ccc2n(n1)c(N)n[n+]2CC(=O)c1cc(OC)cc(S(F)(F)(F)(F)F)c1` [Example 26, 3-Amino-6-(1-ethylpropoxy)-1-{2-[3-methoxy-5-(pentafluorosulfanyl)phe-nyl]-2-oxoethyl}-[1,2,4]triazolo[4,3-b]pyridazin-1-ium trifluoroacetate] gave an IC50 of 5 nM.
`CCOc1cc(C(=O)C[n+]2nc(N)n3nc(OC(CC)CC)ccc32)cc(C(C)(C)C)c1` [Example 32, 3-Amino-1-[2-(3-tert-butyl-5-ethoxyphenyl)-2-oxoethyl]-6-(1-ethylpropoxy)-[1,2,4]triazolo[4,3-b]pyridazin-1-ium chloride] registered an IC50 of 6 nM.
In turn, `CCC(CC)Oc1ccc2n(n1)c(N)n[n+]2CC(=O)c1cc(OC)c(OC)c(OCC2CCCCC2)c1` [Example 38, 3-Amino-1-[2-(3-cyclohexylmethoxy-4,5-dimethoxyphenyl)-2-oxoethyl]-6-(1-ethylpropoxy)-[1,2,4]triazolo[4,3-b]pyridazin-1-ium chloride] came in with an IC50 of 240 nM.
`CCCCOc1ccc2n(n1)c(N)n[n+]2CC(=O)c1cc(COC)cc(C(C)(C)C)c1` [Example 39, 3-Amino-6-butoxy-1-[2-(3-tert-butyl-5-methoxymethylphenyl)-2-oxoethyl]-[1,2,4]triazolo[4,3-b]pyridazin-1-ium chloride] showed an IC50 of 37 nM.

The target of a further assay is T1, PAR1. In words: PAR1 binding test (radioligand displacement, membrane preparation). Particulars: human PAR1 expressed in High Five insect cell membranes; radioligand 20 nM; read-out: Inhibition of binding IC50. As to the method:
The synthesized substances were examined in a PAR1 binding test. This tested whether the substances can inhibit the binding of a radioactively labeled PAR1 agonist known from the literature at the PAR1 receptor (Ho-Sam Ahn, Mol Pharm, 51:350-356, 1997).
The human PAR1 receptor was expressed transiently in High Five insect cells. From these cells, after 48 hours, a membrane preparation was produced by standard methods, aliquoted into 10 mM Tris-HCl; 0.3 mM EDTA; 1 mM EGTA; 250 mM sucrose pH 7.5, and stored at −80° C.
The substances were preincubated with the membrane at RT for 15 minutes, then the radioligand (ALA-(para-F-Phe)-Arg-ChA-homoArg-(3,4-^3H-Tyr)-NH2; approx. 40 Ci/mMol) was added. The end concentration of the radioligand in the test buffer (50 mM Tris-HCl; 10 mM MgCl2; 1 mM EGTA; 0.1% BSA; 2% DMSO) was 20 nM, that of the membrane 1 mg/ml. After an incubation time of 60 minutes, 25 μL of the mixture were transferred to a 96-well MultiScreenHTS FB microtiter filtration plate (from Millipore), which had been pretreated beforehand with a 0.75% aqueous polyethyleneimine solution for 5 hours at RT. Thereafter, with vacuum extraction, each well was washed four times with 300 μL of buffer (50 mM Tris-HCl; 10 mM MgCl2; 1 mM EGTA). The plate was then dried overnight, 100 μl of scintillator per well were added, and the plate was analyzed after 6 hours in a Wallac MicroBeta (from PerkinElmer) liquid scintillation counter. The nonspecific binding was determined in the presence of 100 μM SCH79797 (PAR-1 antagonist; from Tocris, Cat. No. 1592) and subtracted from all measurements. The 100% value used was a control without inhibitor. The % inhibition values of a substance dilution series were used to calculate the IC50 with the aid of nonlinear regression analysis according to the 4-parameter equation.
(In general: Loss of bound radioactivity is the signal in a displacement assay; it reports binding, not function.)
For `CCOCc1cc(C(=O)C[n+]2nc(N)n3nc(OC(CC)CC)ccc32)cc(C(C)(C)C)c1` [Example 27, 3-Amino-1-[2-(3-tert-butyl-5-ethoxymethylphenyl)-2-oxoethyl]-6-(1-ethylpropoxy)-[1,2,4]triazolo[4,3-b]pyridazin-1-ium chloride], the IC50 was 152 nM.
As for `CCOc1cc(C(=O)C[n+]2nc(N)n3nc(OC(CC)CC)ccc32)cc(C(C)(C)C)c1OCC` [Example 29, 3-Amino-1-[2-(3-tert-butyl-4,5-diethoxyphenyl)-2-oxoethyl]-6-(1-ethylpropoxy)-[1,2,4]triazolo[4,3-b]pyridazin-1-ium chloride], the IC50 came out at 136 nM.
Same read-out and setting: then `CCC(CC)Oc1ccc2n(n1)c(N)n[n+]2CC(=O)c1cc(OCC2CC2)cc(C(C)(C)C)c1` [Example 35, 3-Amino-1-[2-(3-tert-butyl-5-cyclopropylmethoxyphen-yl)-2-oxoethyl]-6-(1-ethylpropoxy)-[1,2,4]triazolo[4,3-b]pyridazin-1-ium chloride], with 132 nM.
`CCC(CC)Oc1ccc2n(n1)c(N)n[n+]2CC(=O)c1cc(Cl)cc(OC)c1` [Example 40, 3-Amino-1-[2-(3-chloro-5-methoxyphenyl)-2-oxoethyl]-6-(1-ethylpropoxy)-[1,2,4]triazolo[4,3-b]pyridazin-1-ium chloride]: the IC50 was 601 nM.
Same read-out and setting: next, `CCC(CC)Oc1ccc2n(n1)c(N)n[n+]2CC(=O)c1cc(OC)cc(C(C)C)c1` [Example 46, 3-Amino-6-(1-ethylpropoxy)-1-]2-(3-isopropyl-5-methoxyphenyl)-2-oxoethyl]-[1,2,4]triazolo[4,3-b]pyridazin-1-ium chloride]: 114 nM.
Consider `CCC(CC)Oc1ccc2n(n1)c(N)n[n+]2CC(=O)c1cc(OC)cc(OCC2CCCCC2)c1` [Example 47, 3-Amino-1-[2-(3-cyclohexylmethoxy-5-methoxyphenyl)-2-oxoethyl]-6-(1-ethylpropoxy)-[1,2,4]triazolo[4,3-b]pyridazin-1-ium chloride], for which the IC50 worked out at 10000 nM.
In the case of `CCC(CC)Oc1ccc2n(n1)c(N)n[n+]2CC(=O)c1cc(OCCOC)cc(C(C)(C)C)c1` [Example 54, 3-Amino-1-{2-[3-tert-butyl-5-(2-methoxyethoxy)phenyl]-2-oxoethyl}-6-(1-ethylpropoxy)-[1,2,4]triazolo[4,3-b]pyridazin-1-ium chloride], the IC50 was 85 nM.
Take `CCc1ccc2n(n1)c(N)n[n+]2CC(=O)c1cc(N2CCOCC2)c(OC)c(C(C)(C)C)c1` [Example 60, 3-Amino-1-[2-(3-tert-butyl-4-methoxy-5-morpholin-4-ylphenyl)-2-oxoethyl]-6-ethyl-[1,2,4]triazolo[4,3-b]pyridazin-1-ium trifluoroacetate]: the IC50 worked out at 2100 nM.
Still for that read-out and setting: then `CCOc1nn2c(NC)n[n+](CC(=O)c3cc(N4CCOCC4)c(OC)c(C(C)(C)C)c3)c2c(C)c1C` [Example 72, 1-[2-(3-tert-Butyl-4-methoxy-5-morpholin-4-ylphenyl)-2-oxoethyl]-6-ethoxy-7,8-dimethyl-3-methylamino-[1,2,4]triazolo[4,3-b]pyridazin-1-ium trifluoroacetate], with 1700 nM.
Consider `CCC(CC)Oc1nn2c(N)n[n+](CC(=O)c3cc(N4CCOCC4)c(OC)c(C(C)(C)C)c3)c2cc1C1CC1` [Example 76, 3-Amino-1-[2-(3-tert-butyl-4-methoxy-5-morpholin-4-ylphenyl)-2-oxoethyl]-7-cyclopropyl-6-(1-ethylpropoxy)-[1,2,4]triazolo[4,3-b]pyridazin-1-ium chloride], for which the IC50 came to 1400 nM.
Regarding `CCOc1nn2c(N)n[n+](CC(=O)c3cc(OCCCO)c(OC)c(C(C)(C)C)c3)c2cc1CC` [Example 82, 3-Amino-1-{2-[3-tert-butyl-5-(3-hydroxypropoxy)-4-methoxyphenyl]-2-oxoethyl}-6-ethoxy-7-ethyl-[1,2,4]triazolo[4,3-b]pyridazin-1-ium chloride], the IC50 came out at 8400 nM.

Values taken from US8853206B2, “Triazolium salts as PAR1 inhibitors, production thereof, and use as medicaments” (Sanofi, priority 2008, dated 2014).
